Patent US5248677A, “Biogentic amine uptake inhibitors” (priority 1992, dated 1993)
Structures can show the parent of a compound that is named as a salt.

Legend:
Format in all cases: biochemical, rat (Male Sprague-Dawley)
dopamine uptake = experiment: DA (dopamine) uptake inhibition, synaptosomal preparation (striatum); details: rat striatum synaptosomes, 0.1 μM tritiated amine, 37° C., 4 minutes
Method: (§1) For the purpose of identifying compounds as biogenic amine uptake inhibitors capable of interacting with the uptake carrier, ligand-carrier binding assays were carried out as an initial sceen.
(§2) Male Sprague-Dawley derived rats, weighing about 180-250 g each (purchased from Sasco Animal Laboratories, Oregon, Wis.) were sacrificed by decapitation. The brains were immediately removed, placed on a chilled glass plate and dissected according to a modification of the method of Glowinski and Iversen (J. Glowinski and L. L. Iversen, J Neurochem, 1966, 13: 655-669). First, the rhombencephalon was separated by a transverse section and discarded. The rest of the brain was divided into two portions by making another transverse section at the level of the optic chiasma. The hypothalamus, which was used for norepinephrine uptake studies, was removed from the posterior part by using the anterior commissure as the horizontal reference point and a line between the posterior hypothalamus and mammillary bodies as the caudal limit. The striatum, which was used for dopamine uptake studies, was also dissected from the posterior portion using the external wall of the lateral ventricle as the internal limit and the corpus collosum as the external limit. The frontal parts of the striatum were removed from the anterior portion of the cerebrum and combined with the striatal tissue from the posterior segment. The cortex, which was used for serotonin uptake studies, was composed of the rest of the anterior portion of the cerebrum and the cortical surfaces removed from the posterior segment. The hypothalamus and the striatum each weighed about 100 mg or slightly less, whereas the cortex weighed up to 800 mg. The tissues were placed in a cold Potter-Elvehjem glass homogenizer with 5 (cortex) or 10 (hypothalamus) or 20 (striatum) volumes of ice-cold 0.32M sucrose, pH 7, and homogenized by hand. The homogenate was centrifuged (on a Multifuge®, American Scientific Products) at 2500 rpm for 10 minutes in a refrigerated room (~4° C.). The supernatant fraction containing the synaptosomes was decanted, mixed thoroughly and kept on crushed ice for use in the uptake studies.
(§3) Uptake studies were conducted according to the method of Snyder and Coyle (S. H. Snyder and J. T. Coyle, J Pharmacol Exp Ther, 1969, 165: 78-86) with minor modifications. Usually a 0.1 mL aliquot of the synaptosomal preparation was incubated in a mixture of 0.75 mL of modified Krebs-Ringerbuffer, 0.05 mL of the drug being tested, and 0.1 mL of a 1 μM solution of the labeled (tritiated) amine (final concentration 0.1 μM), for a total volume of 1 mL. The modified Krebs-Ringer bicarbonate buffer used in these studies contained 118 mM sodium chloride, 4 mM potassium chloride, 1.3 mM calcium chloride, 1.12 mM potassium dihydrogen phosphate, 1.2 mM magnesium sulfate and 24 mM sodium bicarbonate, with the addition of 5 mM glucose, 0.15 mM disodium EDTA, 12.5 μM nialamide and 1 mM ascorbic acid. Uptake was initiated by the addition of the tritiated amine and the mixture was incubated at 37° C. in a Dubnoff Metabolic Shaking Incubator for 4 minutes. A preincubation period was not included since it had been reported that results were similar with and without preincubation of the synaptosomal preparation (G. Vosmer, et al. Biochem Pharmacol, 1980, 24: 2557-2562). Control incubations without the test drug were conducted at 37° C. to determine total uptake and at 0° C. (in a crushed ice bath) to correct for the diffusion of the tritiated amine into the synaptosomes and/or binding.
(§4) Filtration was used to terminate uptake and collect the synaptosomes (C. A. Csernansky, et al. J Pharmacol Methods, 1985, 13: 187-191). In the filtration technique, the incubation mixture was diluted with ice-cold 0.9% aqueous sodium chloride solution and filtered through GF/B glass microfiber filters (Whatman) under reduced pressure. […]

5-HT (serotonin) uptake = 5-HT (serotonin) uptake inhibition, synaptosomal preparation (cortex); details: 5-hydroxytryptamine, rat cortex synaptosomes, 0.1 μM tritiated amine, 37° C., 4 minutes
Method: as §1, §2, §3, §4

norepinephrine uptake = experiment: NE (norepinephrine) uptake inhibition, synaptosomal preparation (hypothalamus); details: rat hypothalamus synaptosomes, 0.1 μM tritiated amine, 37° C., 4 minutes
Method: as §1, §2, §3, §4

In the case of `CN1CC2c3ccccc3CCC2CCC1Cc1ccccc1` (single isomer, unassigned; (-)) [Example 78, (-) 2-Methyl-1,3,4,5,5a,6,7,11b-octahydro-3-phenylmethyl-2H-naphth[1,2-c]azepine hydrochloride], the IC50 (dopamine uptake) is reported as 189 nM, the IC50 (5-HT (serotonin) uptake) is reported as under 1000 nM and the IC50 (norepinephrine uptake) is reported as 9.7 nM.
In the case of `COc1ccc2c(c1)CCC1C2CN(C)C1Cc1ccccc1` (stereo not drawn) [Example 2, cis-2,3,3a,4,5,9b-Hexahydro-7-methoxy-2-methyl-3-phenylmethyl-1H-benz[e]isoindole methanesulfonic acid salt], the IC50 (dopamine uptake) is reported as 182 nM, the IC50 (5-HT (serotonin) uptake) is reported as 4160 nM and the IC50 (norepinephrine uptake) is reported as 58 nM.
`Fc1cccc(CC2NCC3c4ccccc4CCC23)c1` (stereo not drawn) [Example 15, cis-3-(3-Fluorophenyl)methyl-2,3,3a,4,5,9b-hexahydro-1H-benz[e]isoindole hydrochloride] was tested, and the IC50 (dopamine uptake) was 7700 nM, the IC50 (5-HT (serotonin) uptake) was 15000 nM and the IC50 (norepinephrine uptake) was 347 nM.
`CN1C[C@@H]2c3ccccc3CC[C@@H]2CCC1Cc1ccccc1` (relative stereo) [Example 77, (+)-cis-2-Methyl-1,3,4,5,5a,6,7,11b-octahydro-3-phenylmethyl-2H-naphth[1,2-c]azepine hydrochloride] gave an IC50 (dopamine uptake) of 5170 nM, an IC50 (5-HT (serotonin) uptake) of 4170 nM and an IC50 (norepinephrine uptake) of 190 nM.
With `COc1cccc2c1CCC1CCC(Cc3ccccc3)N(C)CC21` (single isomer, unassigned) [Example 76A, 8-Methoxy-2-methyl-1,3,4,5,5a,6,7,11b-octahydro-3-phenylmethyl-2H-naphth[1,2-c]azepine hydrochloride] the IC50 (dopamine uptake; hydrochloride) was 529 nM, the IC50 (5-HT (serotonin) uptake; hydrochloride) was 386 nM and the IC50 (norepinephrine uptake; hydrochloride) was 3.5 nM.
For `CN1CC2c3ccccc3CCC2C1Cc1cccc(F)c1` (stereo not drawn) [Example 16, cis-3-(3-Fluorophenyl)methyl-2,3,3a,4,5,9b-hexahydro-2-methyl-1H-benz[e]isoindole hydrochloride], the IC50 (dopamine uptake) was 441 nM, the IC50 (5-HT (serotonin) uptake) was 5450 nM and the IC50 (norepinephrine uptake) was 50 nM.
`CN1CC2c3ccccc3CCC2C1Cc1ccc(F)cc1` (stereo not drawn) [Example 18, cis-3-(4-Fluorophenyl)methyl-2,3,3a,4,5,9b-hexahydro-2-methyl-1H-benz[e]isoindole methanesulfonic acid salt] was tested, and the IC50 (dopamine uptake) was 4820 nM, the IC50 (5-HT (serotonin) uptake) was 2910 nM and the IC50 (norepinephrine uptake) was 241 nM.
For `COc1cccc2c1CCC1C2CN(C)C1Cc1cccc(F)c1` (stereo not drawn) [Example 24, cis-3-(3-Fluorophenyl)methyl-2,3,3a,4,5,9b-hexahydro-6-methoxy-2-methyl-1H-benz[e]isoindole hydrochloride], the IC50 (dopamine uptake) was 170 nM, the IC50 (5-HT (serotonin) uptake) was 2470 nM and the IC50 (norepinephrine uptake) was 104 nM.
`CC1C[C@H]2c3ccccc3CC[C@H]2CN1Cc1ccccc1` (relative stereo) [Example 71B, cis-2-Methyl-1,2,3,4,4a,5,6,10b-octahydro-3-phenylmethyl-benz[f]isoquinoline] gave an IC50 (dopamine uptake) of 633 nM, an IC50 (5-HT (serotonin) uptake) of 2050 nM and an IC50 (norepinephrine uptake) of 11.9 nM.
`CN1CC2c3ccccc3CCC2C1Cc1ccccc1` (stereo not drawn) [Example 9, cis-2,3,3a,4,5,9b-Hexahydro-2-methyl-3-phenylmethyl-1H-benz[e]isoindole methanesulfonic acid salt] was tested, and the IC50 (dopamine uptake) was 540 nM, the IC50 (5-HT (serotonin) uptake) was 6600 nM and the IC50 (norepinephrine uptake) was 48 nM.
`CCN1CC2c3ccc(OC)cc3CCC2C1Cc1ccccc1` (stereo not drawn) [Example 3, cis-2-Ethyl-2,3,3a,4,5,9b-hexahydro-7-methoxy-3-phenylmethyl-1H-benz[e]isoindole methanesulfonate salt] gave an IC50 (dopamine uptake) of 225 nM, an IC50 (5-HT (serotonin) uptake) of 1400 nM and an IC50 (norepinephrine uptake) of 18 nM.
`COc1cccc2c1CCC1CCC(Cc3ccccc3)N(C)CC21` (single isomer, unassigned) [Example 76B, 8-Methoxy-2-methyl-1,3,4,5,5a,6,7,11b-octahydro-3-phenylmethyl-2H-naphth[1,2-c]azepine hydrochloride] gave an IC50 (dopamine uptake; hydrochloride) of 2190 nM, an IC50 (5-HT (serotonin) uptake; hydrochloride) of 344 nM and an IC50 (norepinephrine uptake; hydrochloride) of 234 nM.
In the case of `COc1cccc2c1CCC1C(Cc3ccccc3)NCC21` (stereo not drawn) [Example 21, cis-2,3,3a,4,5,9b-Hexahydro-6-methoxy-3-phenylmethyl-1H-benz[e]isoindole methanesulfonic acid salt], the IC50 (dopamine uptake) is reported as 5490 nM, the IC50 (5-HT (serotonin) uptake) is reported as 13100 nM and the IC50 (norepinephrine uptake) is reported as 758 nM.
